Measurements reported in the CheMixHub ionic liquid set.

Assay: xn = mol fraction of the nth substance listed
Conditions: 101 kPa

Cn1cc[n+](CCC[n+]2ccn(C)c2)c1.[Br-].[Br-] + O=C[C@H](O)[C@@H](O)[C@H](O)[C@H](O)CO + O
viscosity (293.15 K, x1 = 0.0005066, x2 = 0.001798): 1.061 mPa·s
viscosity (293.15 K, x1 = 0.0005575, x2 = 0.001798): 1.059 mPa·s
viscosity (293.15 K, x1 = 0.0005912, x2 = 0): 1.016 mPa·s
viscosity (293.15 K, x1 = 0.0006805, x2 = 0): 1.016 mPa·s
viscosity (293.15 K, x1 = 0.0007464, x2 = 0.001797): 1.065 mPa·s
viscosity (293.15 K, x1 = 0.0007474, x2 = 0): 1.019 mPa·s
viscosity (293.15 K, x1 = 0.0009122, x2 = 0): 1.025 mPa·s
viscosity (293.15 K, x1 = 0.0009147, x2 = 0.001797): 1.073 mPa·s
viscosity (293.15 K, x1 = 0.001085, x2 = 0.001797): 1.079 mPa·s
viscosity (293.15 K, x1 = 0.001235, x2 = 0.001797): 1.086 mPa·s
viscosity (293.15 K, x1 = 0.00129, x2 = 0): 1.043 mPa·s
viscosity (293.15 K, x1 = 0.001332, x2 = 0.001796): 1.083 mPa·s
viscosity (293.15 K, x1 = 0.00144, x2 = 0): 1.05 mPa·s
viscosity (293.15 K, x1 = 0.001476, x2 = 0.001796): 1.087 mPa·s
viscosity (293.15 K, x1 = 0.001591, x2 = 0.001796): 1.093 mPa·s
viscosity (293.15 K, x1 = 0.001838, x2 = 0): 1.066 mPa·s
viscosity (293.15 K, x1 = 0.002094, x2 = 0): 1.071 mPa·s
viscosity (293.15 K, x1 = 0.002204, x2 = 0): 1.071 mPa·s
viscosity (293.15 K, x1 = 0.002491, x2 = 0): 1.084 mPa·s
viscosity (298.15 K, x1 = 0.0005066, x2 = 0.001798): 0.945 mPa·s
viscosity (298.15 K, x1 = 0.0005575, x2 = 0.001798): 0.942 mPa·s
viscosity (298.15 K, x1 = 0.0005912, x2 = 0): 0.905 mPa·s
viscosity (298.15 K, x1 = 0.0006805, x2 = 0): 0.904 mPa·s
viscosity (298.15 K, x1 = 0.0007464, x2 = 0.001797): 0.947 mPa·s
viscosity (298.15 K, x1 = 0.0007474, x2 = 0): 0.908 mPa·s
viscosity (298.15 K, x1 = 0.0009122, x2 = 0): 0.913 mPa·s
viscosity (298.15 K, x1 = 0.0009147, x2 = 0.001797): 0.954 mPa·s
viscosity (298.15 K, x1 = 0.001085, x2 = 0.001797): 0.96 mPa·s
viscosity (298.15 K, x1 = 0.001235, x2 = 0.001797): 0.966 mPa·s
viscosity (298.15 K, x1 = 0.00129, x2 = 0): 0.927 mPa·s
viscosity (298.15 K, x1 = 0.001332, x2 = 0.001796): 0.963 mPa·s
viscosity (298.15 K, x1 = 0.00144, x2 = 0): 0.935 mPa·s
viscosity (298.15 K, x1 = 0.001476, x2 = 0.001796): 0.966 mPa·s
viscosity (298.15 K, x1 = 0.001591, x2 = 0.001796): 0.97 mPa·s
viscosity (298.15 K, x1 = 0.001838, x2 = 0): 0.948 mPa·s
viscosity (298.15 K, x1 = 0.002094, x2 = 0): 0.955 mPa·s
viscosity (298.15 K, x1 = 0.002204, x2 = 0): 0.955 mPa·s
viscosity (298.15 K, x1 = 0.002491, x2 = 0): 0.962 mPa·s
viscosity (303.15 K, x1 = 0.0005066, x2 = 0.001798): 0.846 mPa·s
viscosity (303.15 K, x1 = 0.0005575, x2 = 0.001798): 0.844 mPa·s
viscosity (303.15 K, x1 = 0.0005912, x2 = 0): 0.812 mPa·s
viscosity (303.15 K, x1 = 0.0006805, x2 = 0): 0.811 mPa·s
viscosity (303.15 K, x1 = 0.0007464, x2 = 0.001797): 0.848 mPa·s
viscosity (303.15 K, x1 = 0.0007474, x2 = 0): 0.816 mPa·s
viscosity (303.15 K, x1 = 0.0009122, x2 = 0): 0.82 mPa·s
viscosity (303.15 K, x1 = 0.0009147, x2 = 0.001797): 0.856 mPa·s
viscosity (303.15 K, x1 = 0.001085, x2 = 0.001797): 0.86 mPa·s
viscosity (303.15 K, x1 = 0.001235, x2 = 0.001797): 0.867 mPa·s
viscosity (303.15 K, x1 = 0.00129, x2 = 0): 0.832 mPa·s
viscosity (303.15 K, x1 = 0.001332, x2 = 0.001796): 0.863 mPa·s
viscosity (303.15 K, x1 = 0.00144, x2 = 0): 0.84 mPa·s
viscosity (303.15 K, x1 = 0.001476, x2 = 0.001796): 0.866 mPa·s
viscosity (303.15 K, x1 = 0.001591, x2 = 0.001796): 0.87 mPa·s
viscosity (303.15 K, x1 = 0.001838, x2 = 0): 0.85 mPa·s
viscosity (303.15 K, x1 = 0.002094, x2 = 0): 0.855 mPa·s
viscosity (303.15 K, x1 = 0.002204, x2 = 0): 0.857 mPa·s
viscosity (303.15 K, x1 = 0.002491, x2 = 0): 0.859 mPa·s
viscosity (308.15 K, x1 = 0.0005066, x2 = 0.001798): 0.764 mPa·s
viscosity (308.15 K, x1 = 0.0005575, x2 = 0.001798): 0.765 mPa·s
viscosity (308.15 K, x1 = 0.0005912, x2 = 0): 0.734 mPa·s
viscosity (308.15 K, x1 = 0.0006805, x2 = 0): 0.734 mPa·s
viscosity (308.15 K, x1 = 0.0007464, x2 = 0.001797): 0.768 mPa·s
viscosity (308.15 K, x1 = 0.0007474, x2 = 0): 0.739 mPa·s
viscosity (308.15 K, x1 = 0.0009122, x2 = 0): 0.74 mPa·s
viscosity (308.15 K, x1 = 0.0009147, x2 = 0.001797): 0.773 mPa·s
viscosity (308.15 K, x1 = 0.001085, x2 = 0.001797): 0.779 mPa·s
viscosity (308.15 K, x1 = 0.001235, x2 = 0.001797): 0.78 mPa·s
viscosity (308.15 K, x1 = 0.00129, x2 = 0): 0.754 mPa·s
viscosity (308.15 K, x1 = 0.001332, x2 = 0.001796): 0.782 mPa·s
viscosity (308.15 K, x1 = 0.00144, x2 = 0): 0.758 mPa·s
viscosity (308.15 K, x1 = 0.001476, x2 = 0.001796): 0.784 mPa·s
viscosity (308.15 K, x1 = 0.001591, x2 = 0.001796): 0.786 mPa·s
viscosity (308.15 K, x1 = 0.001838, x2 = 0): 0.768 mPa·s
viscosity (308.15 K, x1 = 0.002094, x2 = 0): 0.77 mPa·s
viscosity (308.15 K, x1 = 0.002204, x2 = 0): 0.774 mPa·s
viscosity (308.15 K, x1 = 0.002491, x2 = 0): 0.775 mPa·s
viscosity (313.15 K, x1 = 0.0005066, x2 = 0.001798): 0.696 mPa·s
viscosity (313.15 K, x1 = 0.0005575, x2 = 0.001798): 0.695 mPa·s
viscosity (313.15 K, x1 = 0.0005912, x2 = 0): 0.669 mPa·s
viscosity (313.15 K, x1 = 0.0006805, x2 = 0): 0.67 mPa·s
viscosity (313.15 K, x1 = 0.0007464, x2 = 0.001797): 0.698 mPa·s
viscosity (313.15 K, x1 = 0.0007474, x2 = 0): 0.673 mPa·s
viscosity (313.15 K, x1 = 0.0009122, x2 = 0): 0.675 mPa·s
viscosity (313.15 K, x1 = 0.0009147, x2 = 0.001797): 0.704 mPa·s
viscosity (313.15 K, x1 = 0.001085, x2 = 0.001797): 0.707 mPa·s
viscosity (313.15 K, x1 = 0.001235, x2 = 0.001797): 0.71 mPa·s
viscosity (313.15 K, x1 = 0.00129, x2 = 0): 0.686 mPa·s
viscosity (313.15 K, x1 = 0.001332, x2 = 0.001796): 0.712 mPa·s
viscosity (313.15 K, x1 = 0.00144, x2 = 0): 0.693 mPa·s
viscosity (313.15 K, x1 = 0.001476, x2 = 0.001796): 0.713 mPa·s
viscosity (313.15 K, x1 = 0.001591, x2 = 0.001796): 0.715 mPa·s
viscosity (313.15 K, x1 = 0.001838, x2 = 0): 0.7 mPa·s
viscosity (313.15 K, x1 = 0.002094, x2 = 0): 0.702 mPa·s
viscosity (313.15 K, x1 = 0.002204, x2 = 0): 0.705 mPa·s
viscosity (313.15 K, x1 = 0.002491, x2 = 0): 0.708 mPa·s
